Data on five compounds can be found in patent US7943797B2, “Products for the treatment of the iron chlorosis” (Tradecorp, S.A., priority 2006, dated 2011).

Molecules are shown by their SMILES.

In data set [1] the test system is Soybean plants (Glycine max L. cv. Stine 0480) with induced Fe chlorosis. Nature of the data set: Efficacy of Fe chelates to provide Fe to soybean plants in hydroponics: SPAD index. The data set is classed as in vivo. The conditions noted are these: for Regreening of plants (SPAD index): 20 days after treatment, regardless of the doses (5 and 10 μM). Here is the method:
(§1) Soybean seeds (Glycine max L. cv. Stine 0480) were germinated at 30° C. and 60% RH on paper moistened with 1 M CaSO4 in dark for 2 days. Afterwards, seedlings were placed in 10 L containers (50 seedlings per container) filled with a 1/5 diluted EDTA buffered nutrient solution (macronutrients (mM)—1.0 Ca(NO3)2, 0.9 KNO3, 0.3 MgSO4, 0.1 KH2PO4; cationic micronutrients (μM)—5.0 EDTA/Fe^3+, 2.5 MnSO4, 1.0 CuSO4, 10 ZnSO4, 1.0 CoSO4, 1.0 NiCl2, 115.5 Na2EDTA; anionic micronutrients (μM)-35 NaCl, 10 H3BO3, 0.05 Na2MoO4; 0.1 mM HEPES) for 6 days. On the 7th day, in order to induce Fe chlorosis, seedlings were transferred to 12 L polypropylene buckets containing aerated full strength EDTA buffered nutrient solution but without Fe^3+-chelate. Plants were grown under these conditions until clear symptoms of Fe deficiency were observed (7 days) and then plants were placed in 2 L pots (6 plants per pot) covered with black plastic to avoid light exposure. The effect of different Fe chelates and doses were compared as Fe sources. Chelates used in the treatments were o,o-EDDHA/Fe^3+, o,p-EDDHA/Fe^3+, EDTA/Fe^3+ and Example 1/Fe^3+. The last one is the Fe chelate of the compound of the example 1: 2-(2-((2-hydroxybenzyl)amino)ethylamino)-2-(2-hydroxyphenyl)acetic acid (DCHA). Nutrient solution contained macronutrients and anionic micronutrients as for the seedling period and the following cationic micronutrients composition: (μM) 1.0 MnSO4, 0.5 CuSO4, 0.5 ZnSO4, 0.1 NiCl2 and 0.1 CoSO4. Also, 1 g·L^−1 of CaCO3 was added to the nutrient solution to buffer pH at 7.5 and to simulate conditions of a calcareous soil. Plants were grown for 21 days in this nutrient solution in a growth chamber provided with fluorescent and sodium vapour lamps with a 16 h/30° C. and 50% humidity day and 8 h/25° C. and 70% humidity night regime. Water was added every 2 days and the nutrient solution was renewed every 7 days. Treatments were replicated four times in a completely randomised design. Plants were harvested after 7, 14 and 21 days.
During the experiment, SPAD readings with a chlorophyll-meter (Minolta SPAD-502) were taken for all leaf stages (average of two or three readings per stage) every second day. Only values measured for the youngest fully open leaves (the 2nd stage at the 2nd day, the third at the 10th day and the fourth at the 20th day) are here presented (Table 1)

For data set [2] the test system is unchanged. In words: Efficacy of Fe chelates to provide Fe to soybean plants in hydroponics: Fe content in plants. The data set is classed as in vivo. The protocol: as §1
Root and shoot were separated and washed using Tween 80 (Merck) and HCl solution and fresh and dry (after oven dry procedure) weights were determined. Samples were ground and after dry digestion in a muffle furnace (480° C.), ashes are dissolved in HCl. Fe, Mn, Cu and Zn were analysed by atomic absorption spectrometry.

Data set [3] shares this test system. Nature of the data set: Efficacy of Fe chelates to provide Fe to soybean plants in soil conditions: SPAD index. The data set is classed as in vivo. The conditions noted are these: for SPAD index / Recovery from chlorosis (SPAD): calcareous soil; for Recovery from chlorosis (SPAD): two days after the treatment application. The protocol: (§2) Soybean seeds (Glycine max L. cv. Stine 0480) were germinated at 30° C. and 60% RH on paper moistened with 1 M CaSO4 in dark for 2 days. Afterwards, seedlings were placed in 10 L containers (50 seedlings per container) filled with a 1/5 diluted EDTA buffered nutrient solution (macronutrients (mM)—1.0 Ca(NO3)2, 0.9 KNO3, 0.3 MgSO4, 0.1 KH2PO4; cationic micronutrients (μM)—5.0 EDTA/Fe^3+, 2.5 MnSO4, 1.0 CuSO4, 10 ZnSO4, 1.0 CoSO4, 1.0 NiCl2, 115.5 Na2EDTA; anionic micronutrients (μM)—35 NaCl, 10 H3BO3, 0.05 Na2MoO4; 0.1 mM HEPES) for 4 days. Then, in order to induce Fe chlorosis, nutrient solution without iron was used for two more days and then plants were transplanted in 1 L pots (3 plants per pot) containing 700 g of a calcareous soil ([…] calcium carbonate, 89 g·Kg^−1 CaCO3 active, pH 7.70) and 300 g of lime sand covered with black plastic to avoid light exposure. The effect of different Fe chelates were compared as Fe sources: o,o-EDDHA/Fe^3+, o,p-EDDHA/Fe^3+, EDTA/Fe^3+ and Example 1/Fe^3+. The last one is the Fe chelate of the compound of the example 1: 2-(2-((2-hydroxybenzyl)amino)ethylamino)-2-(2-hydroxyphenyl)acetic acid. Plants were grown for 21 days in this soil conditions in a growth chamber provided with fluorescent and sodium vapour lamps with a 16 h/30° C. and 50% humidity day and 8 h/25° C. and 70% humidity night regime. Treatments were replicated five times in a completely randomised design. Single plants were harvested after 2, 7 and 21 days.
During the experiment, SPAD readings with a chlorophyll-meter (Minolta SPAD-502) were taken for all leaf stages (average of two or three readings per stage) every second day. Values measured for the 2nd stage at the 2nd day, the third at the 12th day and the fourth and fifth at the 22th day) are here presented (Table 4).

Data set [4] shares this test system. In words: Efficacy of Fe chelates in soil conditions: shoot dry weight and Fe concentration in leaves. The data set is classed as in vivo. Particulars: calcareous soil, three sampling times. The protocol: as §2, with “Plants were grown for 21 days in this soil conditions in a growth chamber provided with fluorescent and sodium vapour lamps with a 16 h/30° C. and 50% humidity day and 8 h/25° C. and 70% humidity night regime. Treatments were replicated five times in a completely randomised design. Single plants were harvested after 2, 7 and 21 days.” left out
In each sampling time shoots were separated and washed using Tween 80 (Merck) and HCl solution and fresh and dry (after oven dry procedure) weights were determined. […] Fe, Mn, Cu and Zn were analysed by atomic absorption spectrometry.

For data set [5] the following is noted: compared with o,o-EDDHA/Fe^3+; Yunta et al. 2003; cited from earlier work.
[6] abbreviates: 5 μM chelate, 2 days after treatment (2nd stage).
Where [7] appears, read: 5 μM chelate, 10 days after treatment (3rd stage).
Where [8] appears, read: 5 μM chelate, 20 days after treatment (4th stage).
The mark [9] stands for this setting: 10 μM chelate, 2 days after treatment (2nd stage).
[10] abbreviates: 10 μM chelate, 10 days after treatment (3rd stage).
Setting [11] is: 10 μM chelate, 20 days after treatment (4th stage).
The mark [12] stands for this setting: 5 μM chelate (low dose), 1st sampling 7 days after treatment.
[13] abbreviates: 5 μM chelate (low dose), 2nd sampling 14 days after treatment.
Where [14] appears, read: 5 μM chelate (low dose), 3rd sampling 21 days after treatment.
[15] abbreviates: 10 μM chelate (high dose), 1st sampling 7 days after treatment.
Where [16] appears, read: 10 μM chelate (high dose), 2nd sampling 14 days after treatment.
Setting [17] is: 10 μM chelate (high dose), 3rd sampling 21 days after treatment.
Setting [18] is: 2 days after treatment (2nd stage).
The mark [19] stands for this setting: 12 days after treatment (3rd stage).
Setting [20] is: 22 days after treatment (4th stage).
Setting [21] is: 22 days after treatment (5th stage).

In the case of `O=C([O-])CN(CCN(CC(=O)[O-])CC(=O)[O-])CC(=O)[O-].[Fe+3]` [EDTA/Fe^3+], the SPAD index was 6.8 bcd in data set [1] (setting [6]); 6.9 days in data set [1] (setting [7]); 11.4 c in data set [1] (setting [8]); 8.1 abc in data set [1] (setting [9]); 16.6 c in data set [1] (setting [10]); 19.9 b in data set [1] (setting [11]). For the same compound, the Fe content is given as 14.2 c μg Fe per plant in data set [2] (setting [12]); 19.6 c μg Fe per plant in data set [2] (setting [13]); 22.6 c μg Fe per plant in data set [2] (setting [14]); 27.7 b μg Fe per plant in data set [2] (setting [15]); 32.6 b μg Fe per plant in data set [2] (setting [16]); 47.6 b μg Fe per plant in data set [2] (setting [17]).

With `O=C(O)C(NCCNCc1ccccc1O)c1ccccc1O` (stereo not shown) [Example 1, 2-(2-((2-hydroxybenzyl)amino)ethylamino)-2-(2-hydroxyphenyl)acetic acid], the “Regreening of plants (SPAD index)” value in data set [1] is recorded as “completely regreened”. The “Speed of action to correct iron chlorosis” value in data set [1] (low doses, similar to o,p-EDDHA, higher than o,o-EDDHA) is on record as “fast action to correct iron chlorosis”. In data set [3] (highly calcareous soil, only one treatment application), the “Efficacy against iron chlorosis” value is listed as “efficient to solve iron chlorosis in highly calcareous conditions”.

On to `O=C([O-])C(NCCNCc1ccccc1[O-])c1ccccc1[O-].[Fe+3]` (stereo not shown) [Example 1/Fe^3+], for which the SPAD index is on record as 8.4 abc in data set [1] (setting [6]); 32.8 a in data set [1] (setting [7]); 34.8 a in data set [1] (setting [8]); 8.8 ab in data set [1] (setting [9]); 35.7 a in data set [1] (setting [10]); 35.0 a in data set [1] (setting [11]). Also, the SPAD index in data set [3] (setting [18]) is on record as 23.9; in data set [3] (setting [19]) it was 41.0; in data set [3] (setting [20]), 34.1; in data set [3] (setting [21]), 26.6. In data set [3], the “Recovery from chlorosis (SPAD)” value is “better recovery”. Moreover, the “Dry weight of shoots (FIG. 2)” value in data set [4] is reported as “efficient Fe chlorosis corrector”. The Fe content in data set [2] (setting [12]) was 57.4 a μg Fe per plant; in data set [2] (setting [13]), 152 a μg Fe per plant; in data set [2] (setting [14]), 268 a μg Fe per plant; in data set [2] (setting [15]), 69.3 a μg Fe per plant; in data set [2] (setting [16]), 136 a μg Fe per plant; in data set [2] (setting [17]), 235 a μg Fe per plant. The “Fe provided to plants compared with the other treatments” value in data set [2] (hydroponics, lower Fe application (5 μM)) was “significantly higher amounts of iron and faster”.

`O=C([O-])C(NCCNC(C(=O)[O-])c1ccccc1[O-])c1ccccc1[O-].[Fe+3]` (stereo not shown) [o,o-EDDHA/Fe^3+]: the SPAD index in data set [1] (setting [6]) is listed as 6.2 cd; in data set [1] (setting [7]), 26.7 b; in data set [1] (setting [8]) it was 30.2 a; in data set [1] (setting [9]) it was 9.1 ab; in data set [1] (setting [10]), 31.6 ab; in data set [1] (setting [11]), 32.4 a. The SPAD index in data set [3] (setting [18]) is recorded as 22.4; in data set [3] (setting [19]) it was 42.1; in data set [3] (setting [20]), 34.1; in data set [3] (setting [21]) it was 28.8. Moreover, the “Regreening of plants (SPAD index)” value in data set [1] is given as “completely regreened”. The Fe content in data set [2] (setting [12]) turned out to be 26.0 bc μg Fe per plant; in data set [2] (setting [13]), 83.6 b μg Fe per plant; in data set [2] (setting [14]), 202 b μg Fe per plant; in data set [2] (setting [15]), 61.4 a μg Fe per plant; in data set [2] (setting [16]), 129 a μg Fe per plant; in data set [2] (setting [17]), 254 a μg Fe per plant.

For the compound `O=C([O-])C(NCCNC(C(=O)[O-])c1ccccc1[O-])c1ccc(O)cc1.[Fe+3]` (stereo not shown) [o,p-EDDHA/Fe^3+], the SPAD index is given as 8.1 abc in data set [1] (setting [6]); 30.9 ab in data set [1] (setting [7]); 32.2 a in data set [1] (setting [8]); 10.4 a in data set [1] (setting [9]); 33.1 a in data set [1] (setting [10]); 32.9 a in data set [1] (setting [11]). Further, the SPAD index is 25.8 in data set [3] (setting [18]), 41.2 in data set [3] (setting [19]), 33.0 in data set [3] (setting [20]) and 21.0 in data set [3] (setting [21]). In data set [1], the “Regreening of plants (SPAD index)” value is “completely regreened”. Also, the “Recovery from chlorosis (SPAD)” value in data set [3] was “better recovery”. The “Stability of the Fe3+ chelate” value in data set [5] is “lower stability”. Further, the Fe content in data set [2] (setting [12]) is 43.0 ab μg Fe per plant; in data set [2] (setting [13]) it was 128 a μg Fe per plant; in data set [2] (setting [14]), 223 b μg Fe per plant; in data set [2] (setting [15]), 77.8 a μg Fe per plant; in data set [2] (setting [16]), 129 a μg Fe per plant; in data set [2] (setting [17]) it was 259 a μg Fe per plant.
